Measurements from paper PMC11546610, “Molecular Modeling and In Vitro Functional Analysis of the RGS12 PDZ Domain Variant Associated with High-Penetrance Familial Bipolar Disorder” (International Journal of Molecular Sciences, 2024).
Each block holds one molecule with its values, some of them ahead of it. Residues, ends and D or L forms follow the SMILES beside them. No end group written: not given here. *: point of attachment. Biotin = O=C1N[C@H]2[C@H](CS[C@H]2CCCCC(=O)*)N1; Ahx = NCCCCCC(=O)O

Tests used:
[1] = test system: recombinant RGS12 PDZ domain protein; settings: biotinylated peptide immobilized on streptavidin chip to 350 RU; 10 mM HEPES pH 7.4, 250 mM NaCl, 0.05% Nonidet P-40, 50 μM EDTA; analyte 300 μM (10 nM to 500 μM); mNotch1 surface subtracted
Procedure: Optical detection of real-time protein–peptide interactions by surface plasmon resonance was performed using a Biacore 3000 (Cytiva; Marlborough, MA, USA), as per previously described methods [65, 105, 106]. Briefly, biotinylated peptides were separately immobilized on streptavidin-coated SPR chips (Cytiva) to 350 resonance units (RUs). All experiments were performed with the sensor surface, fluidics, and pump equilibrated with Biacore running buffer (10 mM HEPES pH 7.4, 250 mM NaCl, 0.05% (v/v) Nonidet P-40, and 50 μM EDTA). Increasing concentrations (10 nM to 500 μM) of recombinant RGS12 PDZ domain protein (expressed from E. coli culture and purified as previously described in ref. [65]) were separately injected at a flow rate of 10 μL/min with a 300 s dissociation phase. The surface was regenerated between each test concentration by the injection of a denaturing regeneration buffer (1 M NaCl, 50 mM NaOH). Non-specific binding to a biotinylated mNotch1 peptide-bound streptavidin surface was subtracted from each curve (BIA-evaluation Version 3.0 software, Cytiva). Maximal response units for each injection were plotted using GraphPad Prism 5.0.

[2] = test system: isolated rat RGS12 PDZ domain (recombinant GST-fusion protein); parameters: method as in PMID 9651375, PMID 17380122, PMID 11771424; settings: C-terminal tail peptide; ref [19],[42],[65]; cited from earlier work
[3] = test system: RGS12 PDZ domain protein fusions; settings: yeast two-hybrid, far-western blotting, SPR; ref [19]; cited from earlier work
Source text: In our initial report identifying the PDZ domain within RGS12, we characterized its binding selectivity as being directed toward C-terminal (A/S)-T-X-(L/V) peptide motifs. […] Our subsequent report, characterizing RGS12 as a neuronal Ras/MAPK ...

[4] = test system: wildtype RGS12 PDZ domain; settings: prior SPR assays; ref [19],[42],[65]; cited from earlier work
Source text: Table 1 Heat map of GLIDE SP-peptide and GLIDE XP scores for predicted docking of four pentameric ligands into the ligand-binding “receptor grid” specified for each of the 20 low-energy structural models (“poses”) of the human RGS12 PDZ domain recorded within PDB id 2KV8. […] Each of the three C-tail ligands was synthesized as an N-terminally biotin-tagged polypeptide and used to create gold nanoparticle biosensors for measuring the binding of these recombinant GST-RGS12 PDZ domain fus ...

[5] = target: T1, R59Q-variant RGS12 PDZ domain GST-fusion protein (Homo sapiens, UniProt O14924, R59Q); test: SPR single-cycle kinetics (Alto), R59Q-variant PDZ domain; format: binding; settings: for KD of R59Q variant relative to wildtype (fold less than the wildtype) / maximal binding signal (Rmax), R59Q in comparison to wildtype: R59Q vs wildtype, peptide biosensors, N = 2-4; for kon: R59Q, single trace in figure, 111 nM–9 μM analyte, PBS pH 7.3, 1:1 Langmuir with mass transport limitation, read-out: apparent on-rate (ka)
T1 construct: human RGS12 PDZ domain (aa 18–101 of UniProt O14924); purchased GenScript; host or cells: E. coli
T1 sequence (O14924 18-101 R59Q): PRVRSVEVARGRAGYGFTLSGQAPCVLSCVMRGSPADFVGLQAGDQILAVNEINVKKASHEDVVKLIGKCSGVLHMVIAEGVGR
Procedure: (§1) Wildtype and R59Q-variant versions of the human RGS12 PDZ domain (aa 18–101 of UniProt O14924) were each cloned in frame with an N-terminal glutathione-S-transferase (GST) expression tag, expressed by E. coli fermentation, and purified by GST-affinity column and size-exclusion column chromatographies by GenScript. These recombinant GST-fusion proteins were stored at −80 °C in a storage buffer (150 mM NaCl, 10 mM Tris-HCl pH 7.6, 1 mM EDTA, 5 mM DTT, and 10% glycerol) prior to thawing and supplementation with 0.1% (final) Tween 20 for use in the SPR experiments.
Biotinylated peptides were separately immobilized onto streptavidin-coated gold nanosensor particles (Nicoya) in lane pairs. The reference sensor of the lane held either immobilized mNotch1 or rβ2AR peptide as an established negative control surface, and the test sensor held one of the candidate PDZ domain-interacting peptides. All on-board dilutions and experimental passages of analytes over immobilized peptides were performed with a running buffer consisting of phosphate-buffered saline (137 mM NaCl, 2.7 mM KCl, 4.3 mM disodium phosphate, 1.4 mM monopotassium phosphate; and pH 7.3, from Teknova) supplemented with 0.1% Tween 20 (Nicoya), […] (w/v) bovine serum albumin (BSA; Nicoya), and 3% glycerol (the latter to reduce bulk-shift readings when transitioning from running buffer to protein analyte injections). […] Each sensor was regenerated between each single-stack passage by the injection of a surface regeneration buffer (10 mM NaOH). Non-specific binding to the paired, negative control peptide-bound streptavidin surface was subtracted from each single-stack curve and then binding parameters of the on-rate (ka), off-rate (kd), and dissociation constant (KD) were calculated using the 1:1 Langmuir kinetics model with mass transport limitation (Alto software version 2.3.1; Nicoya). Observed maximal response units (Rmax) and calculated KD values for each single-stack injection were plotted using GraphPad Prism 10.

[6] = target: T2, wildtype RGS12 PDZ domain GST-fusion protein (Homo sapiens, UniProt O14924); test: SPR single-cycle kinetics (Alto), wildtype PDZ domain; format: binding; settings: single trace in figure, 111 nM–9 μM analyte, PBS pH 7.3, 1:1 Langmuir with mass transport limitation, read-out: apparent on-rate (ka)
T2 construct: human RGS12 PDZ domain (aa 18–101 of UniProt O14924); purchased GenScript; host or cells: E. coli
T2 sequence (O14924 18-101): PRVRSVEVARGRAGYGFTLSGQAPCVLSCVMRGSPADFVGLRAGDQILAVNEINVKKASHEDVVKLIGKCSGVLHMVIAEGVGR
Procedure: as §1
Biotinylated peptides were separately immobilized onto streptavidin-coated gold nanosensor particles (Nicoya) in lane pairs. […] All on-board dilutions and experimental passages of analytes over immobilized peptides were performed with a running buffer consisting of phosphate-buffered saline (137 mM NaCl, 2.7 mM KCl, 4.3 mM disodium phosphate, 1.4 mM monopotassium phosphate; and pH 7.3, from Teknova) supplemented with 0.1% Tween 20 (Nicoya), […] (w/v) bovine serum albumin (BSA; Nicoya), and 3% glycerol (the latter to reduce bulk-shift readings when transitioning from running buffer to protein analyte injections). […] Observed maximal response units (Rmax) and calculated KD values for each single-stack injection were plotted using GraphPad Prism 10.

[7] = test system: HA-epitope tagged RGS12 full-length protein; test: Co-immunoprecipitation of RGS12 and SAPAP3 in HEK293T cells; format: binding
Procedure: Monolayer cultures of the immortalized human embryonic kidney cell line HEK293T (ATCC CRL-3216) were transfected at 75–90% confluence using FuGENE6 transfection reagent (Promega; Madison, WI, USA), according to the manufacturer’s instructions, with 0.5 μg of pcDNA3.1-Flag-SAPAP3 expression plasmid DNA and/or 0.5 μg of pcDNA3.1-HA-RGS12 expression plasmid DNA [103]. Forty-eight hours later, the transfected cells were lysed with ice-cold Triton-X lysis buffer (20 mM Tris-HCl pH 7.5, 150 mM NaCl, 1 mM EDTA, 1 mM EGTA, and 1% Triton X-100, supplemented with protease inhibitors). The lysates were clarified by centrifugation (16,000× g) and then incubated overnight at 4 °C with […] of HA- or Flag-epitope tag-specific antibody followed by precipitation with protein-A/G beads (Santa Cruz Biotechnology; Dallas, TX, USA). The beads were washed 3 times with ice-cold lysis buffer and the proteins were eluted in Laemmli buffer. The samples were resolved on 4–12% precast SDS-polyacrylamide gels (Novex/Invitrogen; ThermoFisher Scientific, Waltham, MA, USA), transferred to nitrocellulose, and immunoblotted with horseradish peroxidase (HRP)-conjugated primary antibodies to HA- or Flag-epitope tags and visualized by ECL chemiluminescence (GE Healthcare; Chicago, IL, USA).

[8] = target: T3, SAPAP3 C-terminal peptide, biotin-Ahx-IYIPEAQTRL-carboxylic acid (human, SMILES …); test: SPR; Alto 8 × 2 digital microfluidics SPR (Nicoya); biotinylated peptides immobilised on streptavidin-coated gold nanosensors; GST-RGS12 PDZ fusion protein as analyte, single-cycle kinetics, 111 nM-9 μM; PBS pH 7.3 with 0.1% Tween 20, BSA, 3% glycerol; mNotch1 or rβ2AR reference sensor subtracted; 1:1 Langmuir model with mass transport limitation; apparent rates, estimated KD; settings: both partners purified
T3 construct: C-terminus of SAPAP3; the last ten residues of the human 20-mer aa 960-979; also called SAPAP3 C-tail peptide AQTRL-COOH; source: synthetic peptide (GenScript)
T3 peptide: {Biotin-Ahx}-IYIPEAQTRL-OH

[9] = target: T4, CXCR2 C-terminal peptide, biotin-Ahx-VGSSSGHTSTTL-carboxylic acid (SMILES …); test: as above; settings: both partners purified
T4 construct: C-terminus of CXCR2; also called CXCR2 C-tail peptide TSTTL-COOH; CXCR2 TSTTL-COOH biosensor; source: synthetic peptide (GenScript)
T4 peptide: {Biotin-Ahx}-VGSSSGHTSTTL-OH

[10] = target: T5, MEK2 C-terminal peptide, biotin-Ahx-RTLRLKQPSTPTRTAV-carboxylic acid (rat, SMILES …); test: as above; settings: both partners purified
T5 construct: C-terminus of MEK2; also called MEK2 C-tail; TRTAV-COOH of MEK2; source: synthetic peptide (GenScript)
T5 peptide: {Biotin-Ahx}-RTLRLKQPSTPTRTAV-OH

SPR binding of recombinant RGS12 PDZ domain (in words) [1]: bound specifically
Molecule: biotin-NH-SATESADSIEIYIPEAQTRL-carboxylic acid

Molecule: VGSSSANTSTTL-OH [C-terminal tail of rat CXCR2, 12-mer]
SPR binding to rat RGS12 PDZ domain (in words) [2]: direct and selective binding

Molecule: TSTTL-COOH [CXCR2 C-tail pentamer used in docking and MD]
binding to RGS12 PDZ domain fusions (in words) [3]: specific binding was observed

Molecule: biotin-Ahx-PSQITHIPEAFK-carboxylic acid [mouse Notch1]
binding of negative control to RGS12 PDZ domain (in words) [4]: no demonstrable affinity

Molecule: RTLRLKQPSTPTRTAV-OH [C-terminal tail of rat MEK2, 16-mer]
SPR binding to rat RGS12 PDZ domain (in words) [2]: direct and selective binding

KD of R59Q variant relative to wildtype (fold less than the wildtype) [5]: at least 2 fold | maximal binding signal (Rmax), R59Q in comparison to wildtype [5]: less maximal binding signal (Rmax) | kon [5]: 1500 M⁻¹ s⁻¹ | kon [6]: 1210 M⁻¹ s⁻¹
Molecule: CC(C)C[C@H](NC(=O)[C@@H](NC(=O)[C@@H](NC(=O)[C@H](CO)NC(=O)[C@@H](NC(=O)[C@H](Cc1c[nH]cn1)NC(=O)CNC(=O)[C@H](CO)NC(=O)[C@H](CO)NC(=O)[C@H](CO)NC(=O)CNC(=O)[C@@H](NC(=O)CCCCCNC(=O)CCCC[C@@H]1SC[C@@H]2NC(=O)N[C@@H]21)C(C)C)[C@@H](C)O)[C@@H](C)O)[C@@H](C)O)C(=O)O ({Biotin-Ahx}-VGSSSGHTSTTL-OH)

Molecule: biotin-Ahx-QGRNCNTNDSPL-carboxylic acid [rat beta2-adrenergic receptor]
binding of negative control to RGS12 PDZ domain (in words) [4]: no demonstrable affinity

KD of R59Q variant relative to wildtype (fold less than the wildtype) [5]: at least 2 fold | maximal binding signal (Rmax), R59Q in comparison to wildtype [5]: less maximal binding signal (Rmax) | kon [5]: 15400 M⁻¹ s⁻¹ | kon [6]: 1490 M⁻¹ s⁻¹
Molecule: CC[C@H](C)[C@H](NC(=O)CCCCCNC(=O)CCCC[C@@H]1SC[C@@H]2NC(=O)N[C@@H]21)C(=O)N[C@@H](Cc1ccc(O)cc1)C(=O)N[C@H](C(=O)N1CCC[C@H]1C(=O)N[C@@H](CCC(=O)O)C(=O)N[C@@H](C)C(=O)N[C@@H](CCC(N)=O)C(=O)N[C@H](C(=O)N[C@@H](CCCNC(=N)N)C(=O)N[C@@H](CC(C)C)C(=O)O)[C@@H](C)O)[C@@H](C)CC ({Biotin-Ahx}-IYIPEAQTRL-OH)

SPR binding of recombinant RGS12 PDZ domain (in words) [1]: no appreciable binding
Molecule: biotin-NH-SATESADSIEIYIPEAQSRL-amide

B1: Flag-epitope tagged SAPAP3: Flag-epitope tagged SAPAP3 full-length protein expressed in HEK293T cells (protein, UniProt O95886 1-979, looked up)
chain: MRGYHGDRGSHPRPARFADQQHMDVGPAARAPYLLGSREAFSTEPRFCAPRAGLGHISPEGPLSLSEGPSVGPEGGPAGAGVGGGSSTFPRMYPGQGPFDTCEDCVGHPQGKGAPRLPPTLLDQFEKQLPVQQDGFHTLPYQRGPAGAGPGPAPGTGTAPEPRSESPSRIRHLVHSVQKLFAKSHSLEAPGKRDYNGPKAEGRGGSGGDSYPGPGSGGPHTSHHHHHHHHHHHHQSRHGKRSKSKDRKGDGRHQAKSTGWWSSDDNLDSDSGFLAGGRPPGEPGGPFCLEGPDGSYRDLSFKGRSGGSEGRCLACTGMSMSLDGQSVKRSAWHTMMVSQGRDGYPGAGPGKGLLGPETKAKARTYHYLQVPQDDWGGYPTGGKDGEIPCRRMRSGSYIKAMGDEESGDSDGSPKTSPKAVARRFTTRRSSSVDQARINCCVPPRIHPRSSIPGYSRSLTTGQLSDELNQQLEAVCGSVFGELESQAVDALDLPGCFRMRSHSYLRAIQAGCSQDDDCLPLLATPAAVSGRPGSSFNFRKAPPPIPPGSQAPPRISITAQSSTDSAHESFTAAEGPARRCSSADGLDGPAMGARTLELAPVPPRASPKPPTLIIKTIPGREELRSLARQRKWRPSIGVQVETISDSDTENRSRREFHSIGVQVEEDKRRARFKRSNSVTAGVQADLELEGLAGLATVATEDKALQFGRSFQRHASEPQPGPRAPTYSVFRTVHTQGQWAYREGYPLPYEPPATDGSPGPAPAPTPGPGAGRRDSWIERGSRSLPDSGRASPCPRDGEWFIKMLRAEVEKLEHWCQQMEREAEDYELPEEILEKIRSAVGSTQLLLSQKVQQFFRLCQQSMDPTAFPVPTFQDLAGFWDLLQLSIEDVTLKFLELQQLKANSWKLLEPKEEKKVPPPIPKKPLRGRGVPVKERSLDSVDRQRQEARKRLLAAKRAASFRHSSATESADSIEIYIPEAQTRL
modifications: full-length Flag epitope tag
co-immunoprecipitation ([7]; IP with anti-Flag antibody, Triton-X lysis buffer pH 7.5): co-immuno-precipitate | reciprocal co-immunoprecipitation ([7]; IP with anti-HA antibody): reciprocal co-immunoprecipitation

fold change of KD against the wild type [8]: ≥ 2 fold | fold change of KD against the wild type [9]: ≥ 2 fold | fold change of KD against the wild type [10]: ≥ 2 fold
B2: R59Q-variant human RGS12 PDZ domain GST-fusion protein (domain or fragment, UniProt O14924 18-101, looked up)
chain: PRVRSVEVARGRAGYGFTLSGQAPCVLSCVMRGSPADFVGLQAGDQILAVNEINVKKASHEDVVKLIGKCSGVLHMVIAEGVGR
notes: human RGS12 PDZ domain, aa 18-101 of UniProt O14924, with the bipolar disorder-associated missense variation R59Q; R59Q is a variant found in families with bipolar disorder (Forstner et al.); also called R59Q-variant PDZ domain fusion protein; not shown: GST, N-terminal, kept
